This is an account of results in paper PMC11124413, “Synthesis, Antibacterial Effects, and Toxicity of Licochalcone C” (Pharmaceuticals, 2024).

For one data set, the system named is Gram-negative strains. Set-up: method as in PMID 20160051. The settings on record: without efflux pump inhibitor (EPI); cited from earlier work.
Data set [1] relates to Galleria mellonella larvae. In words: Systemic toxicity in Galleria mellonella larvae. Format: in vivo. The settings on record: 100% DMSO; after 40 h.
Method: The systemic toxicity assay was performed to evaluate the acute toxic effects of LCC, following the procedures described by Megaw [63]. For the experiment, 10 healthy larvae from G. mellonella were randomly selected for each concentration test, with a weight range between 0.2 g and 0.3 g and without melanization aspects. The larvae were chilled on ice for 20 min and had their prolegs cleaned with 70% ethanol. […] Five microliters of the solution were injected into the hemocoel of each larva through the last left proleg using a 25 µL Hamilton syringe. After the administration, the larvae were incubated at 37 °C and their survival was monitored in selected intervals over 72 h. The larvae unable to move when touched and showing elevated levels of melanization were counted as dead. Experiments were performed in triplicate.
Data set [2] has as its system Staphylococcus aureus (ATCC 29213) membrane. In words: Membrane disruption assay, fluorescence microscopy with SYTO9 and propidium iodide. The settings on record: S. aureus; LCC at MIC 12.5 µg/mL, 15 min; nisin positive control.
Method: Two fluorescent dyes propidium iodide (PI) and SYTO9 were added, which stain cells with disrupted membranes (in pink) and whole membranes (in blue).
The assay was performed using Staphylococcus aureus (ATCC 29213), an MSSA strain. Bacterial cells were cultivated in solid TSA broth (tryptone soya) at 36 °C and stirred at 200 rpm. […] Cells were stained with the Live/Dead BacLight Kit (Thermo-Scientific® L7012, Carlsbad, CA, USA), which is composed of two nucleic acid dyes: SYTO9, which stains all cells, and propidium iodide, which penetrates cells with damaged membranes [60]. The stained cells were immobilized on agarose-covered slides as described by Martins [61]. Untreated S. aureus cells with intact membranes were used as negative controls, and S. aureus cells exposed to nisin (Sigma-Aldrich® N5764, St. Louis, MO, USA) were used as positive controls for membrane damage [62]. Microscopic analyses were carried out using an Olympus BX-61 microscope, equipped with a monochromatic OrcaFlash-2.8 camera (Hamamatsu, Japan), and the software CellSens Dimension Version 11 (Olympus).
A further data set relates to MSSA (ATCC 6538). In words: MIC, broth microdilution with resazurin. The data set is classed as cell-based. The note with it: Staphylococcus aureus (MSSA); mean of triplicates; read-out: MIC. A general note: In broth dilution the organism is exposed to a series of concentrations in liquid medium.
Data set [3] concerns Escherichia coli (ATCC 25922). In words: MIC, broth microdilution with resazurin. The settings on record: ATCC25922, mean of triplicates, read-out: MIC. The data set is classed as cell-based.
Another data set concerns H. pylori (ATCC 43526). In words: MIC, broth microdilution with resazurin. Format: cell-based. The settings on record: ATCC43526; Helicobacter pylori; mean of triplicates; read-out: MIC.
The test system of a further data set is E. faecalis (ATCC 1299). In words: MIC, broth microdilution with resazurin. The data set is classed as cell-based. The note with it: ATCC1299; Enterococcus faecalis; mean of triplicates.
In data set [4] the test system is P. aeruginosa (ATCC 27853). In words: MIC, broth microdilution with resazurin. The data set is classed as cell-based. The note with it: ATCC27853; Pseudomonas aeruginosa; mean of triplicates; read-out: MIC.
In data set [5] the test system is S. epidermidis (ATCC 14990). In words: MIC, broth microdilution with resazurin. The data set is classed as cell-based. The settings on record: ATCC14990; Staphylococcus epidermidis; mean of triplicates.
A further data set deals with MSSA planktonic cells. In words: Checkerboard assay. The data set is classed as cell-based, S. aureus. As to the method:
(§1) The combinations of LCC with tetracycline and vancomycin were evaluated against MSSA and MRSA, respectively, using a microdilution broth checkerboard assay, according to White and collaborators, adapted with the standard procedure established by the CLSI [51, 54]. The fractional inhibitory concentration (FIC) of the combination between LCC and tetracycline or vancomycin was determined using Mueller–Hinton broth culture medium into 96-well plates, with a final inoculum suspension of 5.0 × 10^5 CFU/mL, incubated at 37 °C for 24 h. After incubation, an aqueous resazurin solution (0.02%) was added to the wells and the FIC values (ratio between the MIC of the drug in combination and the MIC of the drug alone) were determined for each drug (Equations (1) and (2)). The fractional inhibitory concentration index (FICI) was calculated using Equation (3). (1) FICLCC=MIC of drug A in combination/MIC of drug A alone (2) FICD=MIC of drug B in combination/MIC of drug B alone FIC Index (FICI) = FICLCC + FICD(3)
(§2) The combination was classified as synergistic (FICI ≤ 0.5), indifferent (0.5 < FICI < 4), and antagonistic (FICI ≥ 4). The assays were performed in triplicate in independent experiments.

A further data set relates to MSSA biofilm. In words: Antibiofilm assay (biofilm formation). Format: cell-based, S. aureus. The note with it: MSSA biofilm formation.
The test system of data set [6] is K. pneumoniae (ATCC 23883). In words: MIC, broth microdilution with resazurin. Format: cell-based. The settings on record: ATCC23883; Klebsiella pneumoniae; mean of triplicates; read-out: MIC.
Data set [7] relates to S. pneumoniae (ATCC 6305). In words: MIC, broth microdilution with resazurin. Format: cell-based. The settings on record: ATCC6305; Streptococcus pneumoniae; mean of triplicates.
The subject of a further data set is MRSA biofilm. In words: Antibiofilm assay (biofilm formation). Format: cell-based, S. aureus. The settings on record: MRSA biofilm formation.
Another data set relates to MRSA (ATCC BAA44). In words: MIC, broth microdilution with resazurin. The data set is classed as cell-based. The settings on record: Staphylococcus aureus (MRSA); mean of triplicates; read-out: MIC.
The subject of another data set is MRSA planktonic cells. In words: Checkerboard assay. Format: cell-based, S. aureus. How it is done:
as §1, §2

The next data set concerns M. avium (ATCC 25291). In words: Antimycobacterial MIC, resazurin microtiter assay. The data set is classed as cell-based. The note with it: ATCC25291; Mycobacterium avium; mean of triplicates. (In general: Alamar Blue is a resazurin reagent that responds to reducing activity.)
In data set [8] the test system is M. tuberculosis (ATCC 27294). In words: Antimycobacterial MIC, resazurin microtiter assay. The settings on record: ATCC27294; Mycobacterium tuberculosis; mean of triplicates. The data set is classed as cell-based.
In another data set the test system is M. kansasii (ATCC 12478). In words: Antimycobacterial MIC, resazurin microtiter assay. Format: cell-based. The note with it: ATCC12478; Mycobacterium kansasii; mean of triplicates.
The subject of data set [9] is S. sanguinis (ATCC 10556). In words: MIC, broth microdilution with resazurin. Format: cell-based. The settings on record: ATCC10556; Streptococcus sanguinis; mean of triplicates.
The next data set concerns S. sobrinus (ATCC 33478). In words: MIC, broth microdilution with resazurin. The data set is classed as cell-based. The settings on record: ATCC33478; Streptococcus sobrinus; mean of triplicates.
Another data set relates to S. mutans (ATCC 25175). In words: MIC, broth microdilution with resazurin. The note with it: ATCC25175; Streptococcus mutans; mean of triplicates. The data set is classed as cell-based.

Values after ≈ are worked out from the molar mass of the structure shown. Values joined by “and” are separate entries in the source; they are usually repeats but may differ in a detail not shown here. Identical values can stand only once. Positions of bridges follow the written chain, without caps; N, C: chain ends. Non-standard residues stand in square brackets, D forms with d. No end group written: not given here. Abu = CC[C@H](N)C(=O)O; Dhb = C/C=C(\N)C(=O)O; Dha = C=C(N)C(=O)O Bounds are passed on as bounds.

As for `CC(C)=CCc1c(O)ccc(C(=O)/C=C/c2ccc(O)cc2)c1O` [IBC, isobavachalcone], the antibacterial activity result in the data set with Gram-negative strains was “weakly active”.

For `C[S+](C)[O-]` [DMSO, dimethyl sulfoxide, reference compound], the lethality to larvae entry in [1] is given as “total lethality”.

In the case of “nisin (I[Dhb]AI[Dha]LC[Abu]PGCK[Abu]GALMGCNMK[Abu]A[Abu]CHCSIHV[Dha]K; thioether 8-11, 13-19, 23-26, 25-28, 3-7; UniProt P13068 24-57, looked up) [reference compound]”, the “percentage of cells with permeabilized membrane (stained with both fluorophores)” value in data set [2] is reported as 95%.

For the compound `CN(C)[C@@H]1C(O)=C(C(N)=O)C(=O)[C@@]2(O)C(O)=C3C(=O)c4c(O)cccc4[C@@](C)(O)[C@H]3C[C@@H]12` [Tetracycline, tetracycline, reference compound], the MIC was 0.09 µg/mL (≈ 0.203 µM) with MSSA (ATCC 6538); 0.73 µg/mL (≈ 1.64 µM) in data set [3]; 1.47 µg/mL (≈ 3.31 µM) in the data set with H. pylori (ATCC 43526); 3.3 µg/mL (≈ 7.43 µM) in the data set with E. faecalis (ATCC 1299); 5.9 µg/mL (≈ 13.3 µM) in data set [4]; more than 5.9 µg/mL in [5]. For the same compound, the MIC with MSSA planktonic cells (Staphylococcus aureus, checkerboard, drug alone) was determined as 0.09 µg/mL; in [6], 1.47 µg/mL (≈ 3.31 µM); in [7], 0.4 µg/mL (≈ 0.9 µM). In addition, the “MIC Combined” value in the data set with MSSA planktonic cells (checkerboard, in combination LCC + TC) was 0.18 µg/mL. Moreover, in the data set with MSSA planktonic cells (combination LCC + TC), the “FICD (fractional inhibitory concentration for the associated drug)” value turned out to be 2.0. Moreover, in the data set on MSSA biofilm, the “MBIC50 (minimum biofilm inhibitory concentration)” value turned out to be 0.046 µg/mL.

`CN[C@H](CC(C)C)C(=O)N[C@H]1C(=O)N[C@@H](CC(N)=O)C(=O)N[C@H]2C(=O)N[C@H]3C(=O)N[C@H](C(=O)N[C@H](C(=O)O)c4cc(O)cc(O)c4-c4cc3ccc4O)[C@H](O)c3ccc(c(Cl)c3)Oc3cc2cc(c3O[C@@H]2O[C@H](CO)[C@@H](O)[C@H](O)[C@H]2O[C@H]2C[C@](C)(N)[C@H](O)[C@H](C)O2)Oc2ccc(cc2Cl)[C@H]1O` [Vancomycin, vancomycin, reference compound]: the “MBIC50 (minimum biofilm inhibitory concentration)” value in the data set on MRSA biofilm was 0.737 µg/mL and 0.7375 µg/mL. The MIC in the data set on MRSA (ATCC BAA44) worked out at 0.73 µg/mL (≈ 0.504 µM); in the data set on MRSA planktonic cells (Staphylococcus aureus, read-out: MIC Alone), 0.73 µg/mL. In the data set with MRSA planktonic cells (checkerboard, in combination LCC + VAN), the “MIC Combined” value amounted to 0.36 µg/mL. For the same compound, the “FICD (fractional inhibitory concentration for the associated drug)” value in the data set with MRSA planktonic cells (combination LCC + VAN) came out at 0.5.

Regarding `NNC(=O)c1ccncc1` [Isoniazid, reference compound], the figures for the minimum inhibitory concentration (MIC) (with M. avium (ATCC 25291); in data set [8]; against M. kansasii (ATCC 12478)) were more than 1 µg/mL, 0.5 µg/mL (≈ 3.65 µM) and 1 µg/mL (≈ 7.29 µM), respectively.

On to `[H]/N=C(\N/C(=N/[H])NCCCCCCNC(=N)NC(=N)Nc1ccc(Cl)cc1)Nc1ccc(Cl)cc1` [Chlorhexidine, chlorhexidine, reference compound], for which the MIC stood at 1.8 µg/mL (≈ 3.56 µM) in [9], 3.6 µg/mL (≈ 7.12 µM) in the data set on S. sobrinus (ATCC 33478) and 0.4 µg/mL (≈ 0.791 µM) in the data set on S. mutans (ATCC 25175).

One may read the MIC as the lowest concentration found to suppress growth.
